Assay results: patent publication US9198433B2, “Substituted benzene fungicides” (E I DU PONT DE NEMOURS AND COMPANY, priority 2007, dated 2015)
Marks after values point to notes of the source that are not given here.

Legend:
Format in all cases: in vivo
Botrytis cinerea = test: Test F: tomato Botrytis, preventive spray on tomato seedlings, disease rating
Text: (§1) The test compounds were first dissolved in acetone in an amount equal to 3% of the final volume and then suspended at the desired concentration (in ppm) in acetone and purified water (50/50 mix) containing 250 ppm of the surfactant Trem® 014 (polyhydric alcohol esters). The resulting test suspensions were then used in Tests A-L. Spraying a 200 ppm test suspension to the point of run-off on the test plants was the equivalent of an application rate of 500 g/ha. The test suspension was sprayed to the point of run-off on tomato seedlings. […] A dash (-) indicates no test results. All results are for 200 ppm except where followed by an “*”, which indicates 40 ppm or “**”, which indicates 50 ppm.

[1] = tested on: Erysiphe graminis f. sp. tritici; test: Test A: wheat powdery mildew, preventive spray on wheat seedlings, disease rating; conditions: 40 ppm (*)
Text: (§2) The test compounds were first dissolved in acetone in an amount equal to 3% of the final volume and then suspended at the desired concentration (in ppm) in acetone and purified water (50/50 mix) containing 250 ppm of the surfactant Trem® 014 (polyhydric alcohol esters). The resulting test suspensions were then used in Tests A-L. Spraying a 200 ppm test suspension to the point of run-off on the test plants was the equivalent of an application rate of 500 g/ha. The test suspension was sprayed to the point of run-off on wheat seedlings. […] A dash (-) indicates no test results. All results are for 200 ppm except where followed by an “*”, which indicates 40 ppm or “**”, which indicates 50 ppm.

Alternaria solani = test: Test H: tomato early blight, preventive spray on tomato seedlings, disease rating
Text: as §1

Septoria tritici = test: Test D: wheat leaf blotch, preventive spray on wheat seedlings, disease rating; conditions: 40 ppm (*)
Text: The test compounds were first dissolved in acetone in an amount equal to 3% of the final volume and then suspended at the desired concentration (in ppm) in acetone and purified water (50/50 mix) containing 250 ppm of the surfactant Trem® 014 (polyhydric alcohol esters). The resulting test suspensions were then used in Tests A-L. Spraying a 200 ppm test suspension to the point of run-off on the test plants was the equivalent of an application rate of 500 g/ha. The test suspension was sprayed to the point of run-off on wheat seedlings. The following day the seedlings were inoculated with a spore suspension of Septoria tritici (the causal agent of wheat leaf blotch) and incubated in a saturated atmosphere at 24° C. for 48 h, and then moved to a growth chamber at 20° C. for 19 days, after which time disease ratings were made. […] A dash (-) indicates no test results. All results are for 200 ppm except where followed by an “*”, which indicates 40 ppm or “**”, which indicates 50 ppm.

Septoria nodorum = test: Test C: wheat glume blotch, preventive spray on wheat seedlings, disease rating
Text: as §2

[2] = tested on: Puccinia recondita f. sp. tritici; test: Test B: wheat leaf rust, preventive spray on wheat seedlings, disease rating; conditions: 40 ppm (*)
Text: as §2

Compound | Percentage Disease Control, Test F (Botrytis cinerea; 40 ppm (*)) | Percentage Disease Control, Test A [1] | Percentage Disease Control, Test H (Alternaria solani; 40 ppm (*)) | Percentage Disease Control, Test D (Septoria tritici) | Percentage Disease Control, Test C (Septoria nodorum; 40 ppm (*)) | Percentage Disease Control, Test B [2] | Percentage Disease Control, Test F (Botrytis cinerea; 200 ppm) [%] | Percentage Disease Control, Test H (Alternaria solani; 200 ppm) [%] | Percentage Disease Control, Test C (Septoria nodorum; 200 ppm) [%]
COC(=O)NCc1cc(-c2ccn(CC(C)Oc3ccccc3)n2)ccc1Cl (racemic) [Cmpd 61] | 0* % | 84* % | 0* % | 99* % | 99* % | 100* % | – | – | –
COC(=O)NCc1cc(-c2ccn(-c3ccccc3C(F)(F)F)n2)ccc1Cl [Cmpd 51] | 0* % | 97* % | 60* % | 100* % | 98* % | 99* % | – | – | –
COC(=O)NCc1cc(-c2ccn(-c3ccccc3Cl)n2)ccc1Cl [Cmpd 52] | – | 100* % | – | 100* % | 100* % | 100* % | 99 | 92 | –
COC(=O)NCc1cc(-c2ccn(Cc3cc(C(F)(F)F)ccc3Cl)n2)ccc1Cl [Cmpd 53] | 0* % | 98* % | 92* % | 99* % | 94* % | 99* % | – | – | –
COC(=O)NCc1cc(-c2ccn(-c3ccccc3C(C)=O)n2)ccc1Cl [Cmpd 54] | 0* % | 99* % | – | 99* % | 99* % | 100* % | – | – | –
COC(=O)NCc1cc(-c2ccn(Cc3ccc(-c4ccccc4C#N)cc3)n2)ccc1Cl [Cmpd 55] | 0* % | 88* % | 16* % | 95* % | 92* % | 88* % | – | – | –
COC(=O)NCc1cc(-c2ccn(Cc3ccccc3C)n2)ccc1Cl [Cmpd 70] | – | 99* % | 96* % | 100* % | 100* % | 99* % | – | – | –
COC(=O)NCc1cc(-c2ccn(Cc3cccc(C)c3)n2)ccc1Cl [Cmpd 71] | – | 99* % | 84* % | 100* % | 100* % | 100* % | – | – | –
COC(=O)NCc1cc(-c2ccn(-c3ccc(OC(F)(F)F)cc3)n2)ccc1Cl [Cmpd 77] | – | 99* % | 96* % | 100* % | 100* % | 100* % | – | – | –
COC(=O)NCc1cc(-c2ccn(-c3ccc(C(F)(F)F)cc3)n2)ccc1Cl [Cmpd 79] | 0* % | 99* % | – | 99* % | 100* % | 99* % | – | – | –
COC(=O)NCc1cc(-c2ccn(-c3ccc(-c4ccccc4)cc3)n2)ccc1Cl [Cmpd 82] | 0* % | 60* % | 7* % | – | 86* % | 0* % | – | – | –
CCCCn1nc(-c2ccc(Cl)c(CNC(=O)OC)c2)cc1C(F)(F)F [Cmpd 102] | – | 98* % | – | 98* % | 96* % | 98* % | 0 | – | –
CCCn1nc(-c2ccc(Cl)c(CNC(=O)OC)c2)cc1C(F)(F)F [Cmpd 103] | – | 99* % | – | 99* % | – | 98* % | 0 | – | 87
